The results in this text go back to patent publication US20250353859A1, “COMPOUNDS AS CCR6 INHIBITORS” (Hoffmann-La Roche Inc., priority 2023, published 2025).

Molecules are shown by their SMILES. pIC50: −log10 of the molar value.

Test [1] addresses T1, human CCR6 (Homo sapiens, UniProt P51684).
T1 sequence (P51684 1-374): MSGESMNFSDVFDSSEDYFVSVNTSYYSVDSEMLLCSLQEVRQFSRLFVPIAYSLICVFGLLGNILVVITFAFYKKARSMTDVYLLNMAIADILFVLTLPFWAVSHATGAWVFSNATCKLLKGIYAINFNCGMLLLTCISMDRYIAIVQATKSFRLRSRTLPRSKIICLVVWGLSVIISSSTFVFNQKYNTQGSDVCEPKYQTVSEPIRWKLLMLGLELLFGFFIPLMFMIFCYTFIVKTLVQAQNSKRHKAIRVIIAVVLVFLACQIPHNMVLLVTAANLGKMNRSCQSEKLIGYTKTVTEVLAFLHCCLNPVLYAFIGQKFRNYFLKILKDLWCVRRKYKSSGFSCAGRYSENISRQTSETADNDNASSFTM
Kind of test: CHO-K1 CCR6 chemotaxis assay towards CCL20. The class given is cell-based. As to conditions: CHO-K1 cells overexpressing human CCR6; 100 ng/ml CCL20, 4 h; relative Log IC50. From the text: Cells overexpressing human CCR6 were used in the chemotaxis assay (DiscoverX, cAMP Hunter™ CHO-K1 CCR6 Gi Cell Line). Growth medium of these cells consisted of DMEM/F12, non-essential Amino acids (1×NEAA, Gibco 11140050), 10% FBS and 1× pen/strep (Gibco 15140). For the chemotaxis assay, Corning Transwell plates were used with a pore size of 8 m (Corning 351164). Cells were harvested using trypsin and diluted to 4*10^6 cells/ml in chemotaxis medium (DMEM, 0.25% BSA, pen/strep). Compounds were four-fold serially diluted in DMSO. Further dilutions were made in chemotaxis medium. Cells were incubated with test compounds for 30 min at 37° C. prior to initiation of the assay (2*10^6 cells/ml). Final DMSO concentration in the assay was 0.2%. Wells of the Transwell plates were filled with 200 μl chemotaxis medium containing 100 ng/ml CCL20 (R&D systems 360-MP). 50 μl of the cell/compound suspension was added to the inserts of the Transwell plates (100,000 cells/insert). The Transwell plates were placed in an incubator at 37° C., 5% CO2 for 4 h. After 4 h, the number of migrated cells was quantified using CellTiter Glo (Promega). Percentage inhibition values were calculated based on the low and high signal obtained with 0.2% DMSO in chemotaxis medium without and with CCL20, respectively. The relative Log IC50 was determined with GraphPad Prism 9 using a four-parameter dose-response model.

For test [2], the target named is T1, human CCR6. Kind of test: Human CCR6-CRE reporter assay. The test is classed as cell-based. Details: The second construct contained the open reading frame of human CCR6 in the pUNO1 backbone; host or cells: 293FT cells (transient transfection with TransIT-293). As to conditions: for IC50: 293FT cells transfected with human CCR6 and CRE-luciferase, Forskolin + CCL20, 5 h, relative Log IC50, read-out: CCR6-CRE reporter (converted); for pIC50: R1 = CF3, read-out: Activity in human CCR6-CRE reporter assay. How it is done:
293FT cells were transfected with 2 constructs using TransIT-293 (Mirus). The first construct (pGL4.29, Promega) expressed the luciferase reporter gene luc2P in response to the binding of cAMP-induced CREB to the CREelement in its promoter. The second construct contained the open reading frame of human CCR6 in the pUNO1 backbone under the control of an enhanced CMV promoter(InVivoGen).48 h after transfection, cells were harvested and diluted to 750,000 cells/ml in culture medium (DMEM, 10% FBS, 1× pen/strep(Gibco 15140)). Compounds were 2.5-fold serially diluted in DMSO. Further dilutions were made in assay medium (DMEM, 10% FBS, 1× pen/strep, 6 μM Forskolin, 6 nM CCL20). 4 μl of the compound solution was added to a white MW384 plate, followed by […] of the cell suspension. Final DMSO concentration in the assay was 0.1%. The MW384 plate was placed in an incubator at 37° C., 5% CO2 for 5 h. Luciferase activity was determined by addition of 24 μl of a 2.5× diluted BriteLite luciferase solution(Perkin Elmer), followed by luminescence measurement using a VICTOR Plate reader (Perkin Elmer). […] The relative Log IC50 was determined with GraphPad Prism 9 using a four-parameter dose-response model.

With `O=c1[nH]nc2ccc(-c3ccc(S(=O)(=O)N4CCC(Nc5ccc(OC(F)(F)F)cc5)CC4)cc3)cn12` [Example 23, 6-{4-[(4-{[4-(trifluoromethoxy)phenyl]Amino}piperidin-1-yl)sulfonyl]phenyl}-2H,3H-[1,2,4]triazolo[4,3-a]pyridin-3-one], the pIC50 in test [1] is 7.40.
Regarding `O=c1[nH]nc2ccc(-c3ccc(S(=O)(=O)N4CCC(Nc5ccc(OC(F)(F)F)cn5)CC4)cc3)cn12` [Example 24, 6-{4-[(4-{[5-(trifluoromethoxy)pyridin-2-yl]Amino}piperidin-1-yl)sulfonyl]phenyl}-2H,3H-[1,2,4]triazolo[4,3-a]pyridin-3-one], the pIC50 in test [1] was 7.50. Besides, the IC50 in test [2] is 79.4 nM.
As for `N#Cc1n[nH]c2ccc(-c3ccc(S(=O)(=O)N4CCC(Nc5ccc(OC(F)(F)F)cc5)CC4)cc3)cc12` [Example 14, 5-{4-[(4-{[4-(trifluoromethoxy)phenyl]Amino}piperidin-1-yl)sulfonyl]phenyl}-1H-indazole-3-carbonitrile], the pIC50 in test [1] is 7.70. In addition, the IC50 in test [2] was 63.1 nM.
`N#Cc1c[nH]c2ccc(-c3ccc(S(=O)(=O)N4CCC(Nc5ccc(OC(F)F)cc5)CC4)cc3)cc12` [Example 29, 5-{4-[(4-{[4-(difluoromethoxy)phenyl]Amino}piperidin-1-yl)sulfonyl]phenyl}-1H-indole-3-carbonitrile] showed a pIC50 in test [1] of 6.90.
On to `NC(=O)c1cc(-c2ccc(S(=O)(=O)N3CCC(Nc4ccc(SC(F)(F)F)cn4)CC3)cc2)ccn1` [Example 63, 4-(4-{[4-({5-[(trifluoromethyl)sulfanyl]pyridin-2-yl}amino)piperidin-1-yl]sulfonyl}phenyl)pyridine-2-carboxamide], for which the pIC50 in test [1] is 7.80; in test [2] (scaffold variant X = S), 7.13.
With `Cc1cnc2ccc(-c3ccc(S(=O)(=O)[C@H]4CC[C@H](Nc5ccc(OC(F)(F)F)cc5)CC4)cc3)cn12` [Example 41, N-[trans-4-(4-{3-methylimidazo[1,2-a]pyridin-6-yl}benzenesulfonyl)cyclohexyl]-4-(trifluoromethoxy)aniline], the pIC50 in test [1] is 7.20. For the same molecule, in test [2], the IC50 was 158 nM.
For the molecule `N#Cc1c[nH]c2ccc(-c3ccc(S(=O)(=O)N4CCC(Nc5ccc(OC(F)(F)F)cn5)CC4)cc3)cc12` [Example 15, 5-{4-[(4-{[5-(trifluoromethoxy)pyridin-2-yl]Amino}piperidin-1-yl)sulfonyl]phenyl}-1H-indole-3-carbonitrile], the pIC50 in test [1] was 8.00.
As to `Cc1cc(-c2ccc(S(=O)(=O)N3CCC(Nc4ccc(SC(F)(F)F)cc4)CC3)cc2)cn2c(C(C)C)cnc12` [Example 33, 1-{4-[8-methyl-3-(propan-2-yl)imidazo[1,2-a]pyridin-6-yl]benzenesulfonyl}-N-{4-[(trifluoromethyl)sulfanyl]phenyl}piperidin-4-amine], the pIC50 in test [1] is 7.70. For the same molecule, in test [2], the IC50 is 100 nM.
On the same counts, the results for `O=S(=O)(c1ccc(-c2ccc3nccn3c2)cc1)[C@H]1CC[C@H](Nc2cccc(SC(F)(F)F)c2)CC1` [Example 46, N-[trans-4-(4-{imidazo[1,2-a]pyridin-6-yl}benzenesulfonyl)cyclohexyl]-3-[(trifluoromethyl)sulfanyl]aniline] are 6.10 and 63.1 nM.
For `N#Cc1ccc(-c2ccc(S(=O)(=O)N3CCC(Nc4ccc(OC(F)(F)F)cn4)CC3)cc2)cc1` [Example 7, 4′-[(4-{[5-(trifluoromethoxy)pyridin-2-yl]Amino}piperidin-1-yl)sulfonyl]-[1,1′-biphenyl]-4-carbonitrile], the IC50 in test [2] was 200 nM.
Turning to `CC1CC(Nc2ccc(OC(F)(F)F)cc2)CCN1S(=O)(=O)c1ccc(-c2ccc3c(c2)C(=O)NC3)cc1` (stereo not shown) [Example 37, 6-{4-[(2-methyl-4-{[4-(trifluoromethoxy)phenyl]Amino}piperidin-1-yl)sulfonyl]phenyl}-2,3-dihydro-1H-isoindol-1-one], the IC50 in test [2] is 251 nM.
Take `Cc1n[nH]c2ccc(-c3ccc(S(=O)(=O)N4CCC(Nc5ccc(OC(F)F)cc5)CC4)cc3)cc12` [Example 27, N-[4-(difluoromethoxy)phenyl]-1-[4-(3-methyl-1H-indazol-5-yl)benzenesulfonyl]piperidin-4-amine]: the IC50 in test [2] was 200 nM.
For the molecule `O=S(=O)(c1ccc(-c2ccccc2)cc1)N1CCC(Nc2ccc(OC(F)(F)F)cc2)CC1` [Example 25, 1-{[1,1′-biphenyl]-4-sulfonyl}-N-[4-(trifluoromethoxy)phenyl]piperidin-4-amine], the IC50 in test [2] is 631 nM. Moreover, in test [2] (scaffold variant X = O), the pIC50 was 5.96.
As to `Cc1cc(-c2ccc(S(=O)(=O)N3CCC(Nc4ccc(SC(F)(F)F)cn4)CC3)cc2)cn2c(C(C)C)cnc12` [Example 61, N-(1-{4-[8-methyl-3-(propan-2-yl)imidazo[1,2-a]pyridin-6-yl]benzenesulfonyl}piperidin-4-yl)-5-[(trifluoromethyl)sulfanyl]pyridin-2-amine], the IC50 in test [2] is 63.1 nM.
Regarding `CC(C)c1nnc2ccc(-c3ccc(S(=O)(=O)N4CCC(Nc5cc(OC(F)(F)F)ccn5)CC4)cc3)cn12` [Example 70, N-(1-{4-[3-(propan-2-yl)-[1,2,4]triazolo[4,3-a]pyridin-6-yl]benzenesulfonyl}piperidin-4-yl)-4-(trifluoromethoxy)pyridin-2-amine], in test [2], the IC50 was 3160 nM.
With `CC1CC(Nc2ccc(OC(F)(F)F)cc2)CCN1S(=O)(=O)c1ccc(-c2ccc(C#N)cc2)cc1` (stereo not shown) [Example 36, 4′-[(2-methyl-4-{[4-(trifluoromethoxy)phenyl]Amino}piperidin-1-yl)sulfonyl]-[1,1′-biphenyl]-4-carbonitrile], the IC50 in test [2] is 398 nM.
For `NC(=O)c1cc(-c2ccc(S(=O)(=O)N3CCC(Nc4ccc(OC(F)(F)F)cn4)CC3)cc2)ccn1` [Example 58, 4-{4-[(4-{[5-(trifluoromethoxy)pyridin-2-yl]amino}piperidin-1-yl)sulfonyl]phenyl}pyridine-2-carboxamide], the pIC50 in test [2] (scaffold variant X = O) was 7.21.
Take `Cc1nnc2ccc(-c3ccc(S(=O)(=O)N4CCC(Nc5ccc(OC(F)(F)F)cn5)CC4)cc3)cn12` [Example 60, N-[1-(4-{3-methyl-[1,2,4]triazolo[4,3-a]pyridin-6-yl}benzenesulfonyl)piperidin-4-yl]-5-(trifluoromethoxy)pyridin-2-amine]: the IC50 in test [2] was 39.8 nM.
In the case of `Cc1cc(-c2ccc(S(=O)(=O)N3CCC(Nc4cc(OC(F)(F)F)ccn4)CC3)cc2)cn2c(C(C)C)nnc12` [Example 71, N-(1-{4-[8-methyl-3-(propan-2-yl)-[1,2,4]triazolo[4,3-a]pyridin-6-yl]benzenesulfonyl}piperidin-4-yl)-4-(trifluoromethoxy)pyridin-2-amine], the IC50 in test [2] is 1000 nM.
In the case of `CNC(=O)c1cccc(-c2ccc(S(=O)(=O)N3CCC(Nc4ccc(OC(F)(F)F)cc4)CC3C)cc2)c1` (stereo not shown) [Example 38, N-methyl-4′-[(2-methyl-4-{[4-(trifluoromethoxy)phenyl]Amino}piperidin-1-yl)sulfonyl]-[1,1′-biphenyl]-3-carboxamide], the IC50 in test [2] is 126 nM.
Turning to `NC(=O)c1cc(-c2ccc(S(=O)(=O)N3CCC(Nc4ccc(SC(F)(F)F)cc4)CC3)cc2)ccn1` [Example 34, 4-(4-{[4-({4-[(trifluoromethyl)sulfanyl]phenyl}Amino)piperidin-1-yl]sulfonyl}phenyl)pyridine-2-carboxamide], the IC50 in test [2] is 63.1 nM.
